EP4782431A1 (Suzhou Merna Therapeutics Co. Ltd, priority 2023, dated 2025)

Key:
HaCaT cells [1] = assay: m6A methylation level of drug-treated HaCaT keratinocytes by nanopore sequencing; format: cell-based, human; conditions: 50 nM drug, 24 hours, vs blank control group
Protocol: 1*10^8 HaCaT cells were seeded in culture dishes, into which 50 nM drugs (including sorafenib, capecitabine, docetaxel, and osimertinib) were added, respectively. The cells were cultured in an incubator containing 5% CO2 at 37°C for 24 hours and washed with PBS after culture media were removed. Centrifugation was performed, the supernatant was discarded, and then, 400 µL of an RLT cell lysis buffer (QIAGEN, Cat.#79216) was added. A portion of samples were selected, into which 400 µL of 70% ethanol was added. The mixture was evenly stirred and then transferred to an RNeasy mini column, and RNA was extracted using an RNeasy mini kit (QIAGEN, Cat.#74104). 2 µL of an RNA sample was selected and dissolved in 98 µL of a 10 mM Tris-HCl buffer solution, and the absorbance at 260 nm was measured using a Nanodrop (Thermo Fisher Scientific) to determine the RNA concentration.
40 µg of an RNA sample was selected for enrichment of mRNA (PolyA+RNA) using an NEBNext Poly(A) mRNA magnetic isolation module (NEB, Cat.#E7490), and then, a 3' end of the above enriched mRNA (PolyA+RNA) molecule was ligated with reverse transcription adapter RTA using a direct RNA sequencing kit (Oxford Nanopore Technologies, Cat.#SQK-RNA002). A reverse transcription reaction was performed with the mRNA (PolyA+RNA) molecule as a template to synthesize a complementary strand, a terminal end of the reverse transcription adapter RTA was ligated with a sequencing adapter (RNA adapter) to form a final sequencing library, and quantitative detection was performed using a Qubit™ dsDNA HS assay kit (Invitrogen, Cat.#LOT2133187).
After quality inspection of the library, the prepared sequencing library was loaded onto a PromethION flow cell chip (Oxford Nanopore Technologies, Cat.#FLO-MIN106D), and placed in a PromethION sequencer (Oxford Nanopore Technologies) for sequencing by selecting a matched sequencing mode. Basecalling was performed on sequencing data through guppy, and m6A methylation analysis was performed on original fast5 data.

HaCaT cells [2] = assay: m6A methylation level of human keratinocytes (EpiQuik m6A RNA methylation quantification kit); format: cell-based; conditions: 50 nM drug alone, 24 hours, relative to control group 1 (DMSO)
Protocol: HaCaT cells were cultured in DMEM culture medium containing 10% fetal bovine serum, 100 U/mL penicillin, and 100 µg/mL streptomycin. Culture dishes were placed in an incubator containing 5% CO2 for culture at 37°C for 24 hours. An equal volume of DMSO was added in control group 1, 50 nM sorafenib, capecitabine, docetaxel, and osimertinib were respectively added in control groups A, B, C, and D, and 400 nM test compounds or nicotinamide were respectively added in sample groups A1, A2, B1, B2, C1, C2, D1, and D2 after the addition of 50 nM corresponding compounds. The cells were continuously cultured for 24 hours, washed with PBS, and then collected by high-speed centrifugation. Total RNA was extracted using Trizol reagent (Sigma Aldrich), and RNA m6A methylation of a sample was quantitatively detected using an EpiQuik m6A RNA methylation quantification kit. The concentrations of positive control samples for a standard curve were 0.01 ng/µl, 0.02 ng/µl, 0.05 ng/µl, 0.1 ng/µl, 0.2 ng/µl, and 0.5 ng/µl. The absorbance at 450 nm was read using a microplate reader (Tecan GENios). A quantitative calculation formula for m6A is as follows: m6A(ng) = (absorbanceofsamplewell−absorbanceofbackroundwell)/slope of standard curve [formula] m6A(%) = m6A(ng)/RNA amount of sample(ng)*100%. [formula]

[3] = tested on: chemotherapeutic drug-induced mouse model with hand-foot syndrome; assay: chemotherapeutic drug-induced mouse model with hand-foot syndrome; format: in vivo, ICR mice; conditions: for swelling of the hind limb toes of the mice / epidermal layer and the stratum corneum in the skin tissues of the hind limb toes: modeling drug oral; for swelling of the hind limb toes of the mice: 14 days: capecitabine 200 mg/kg, docetaxel 25 mg/kg; for epidermal layer and the stratum corneum in the skin tissues of the hind limb toes: 14 days: capecitabine, docetaxel; for skin of the hind limb toes of the mice (appearance): modeling for 14 days: capecitabine 200 mg/kg, docetaxel 25 mg/kg oral gavage once daily
Excerpt: After adaptive feeding for 7 days, SPF-grade ICR mice (male, 5-6 weeks old, with a body weight of approximately 35 g) were randomly divided into groups, including a blank control group (6 mice), a capecitabine modeling group (6 mice), a docetaxel modeling group (6 mice), a capecitabine + compound of formula (I) group (6 mice), a docetaxel + compound of formula (I) group (6 mice), a capecitabine + nicotinamide group (6 mice), and a docetaxel + nicotinamide group (6 mice). The groups were respectively administered corresponding modeling drugs by oral gavage (capecitabine at 200 mg/kg and docetaxel at 25 mg/kg) once daily; and the blank control group was administered an equivalent volume of normal saline. After administration with the chemotherapeutic drugs for 2 weeks, the ointments containing the compound of formula (I) (at a compound content of 3%) used in Example 10 were respectively applied topically in the groups, or nicotinamide was orally administered (100 mg/kg) once daily continuously for 16 days.
Measurement of the degree of swelling of toes: The degree of swelling of hind limb toes of the mice was measured using a toe swelling tester (KW-7C, Nanjing Calvin Biotechnology Co., Ltd.) before administration with the modeling drugs, after administration with the modeling drugs for 2 weeks, and before sacrifice, respectively. Before measurement, ankle joints of hind feet of the mice were marked at same positions before administration, after administration for 2 weeks, and before sacrifice. During measurement, water was properly located at the same level as the marked positions, and numerical values were recorded after becoming stable.
Pathological staining of skin tissues: Skin tissue samples were selected from hind limb toes of the mice and placed in 4% paraformaldehyde for fixation at room temperature for 4 hours. Then, the tissues were taken out and rinsed with running water for several hours. The samples were subjected to dehydration treatment with 70%, 80%, and 90% ethanol solutions, followed by treatment with a mixed solution of equal amounts of absolute alcohol and xylene for 15 minutes, and then permeabilized twice with a xylene solution for 15 minutes each time until the samples became transparent. The samples were placed in a mixture of half xylene and half paraffin for soaking for 15 minutes, and then, paraffin I and paraffin II were added for wax penetration for one hour, respectively. After embedding with paraffin, the samples were sectioned, baked, dewaxed, and hydrated. Then, the hydrated sections were placed in a hematoxylin solution (ZSGB-BIO, article No. 23041001) for staining for 3 minutes, and a differentiation solution of hydrochloric acid in ethanol was added for differentiation for 15 seconds. After rinsing with water, a Scott bluing solution (Servicebio, article No. 20230801) was added for bluing for 15 seconds. After rinsing with running water, the sections were stained with an eosin solution (Solarbio, article No. 33535) for 3 minutes, rinsed with running water, dehydrated, permeabilized, sealed, and inspected under a microscope.
Immunohistochemical staining: After baking, dewaxing, and hydration, paraffin sections of skin tissues of hind limb toes of the mice were subjected to antigen retrieval using a 0.2 M citric acid buffer solution (containing 1.534 g of citric acid, 3.1 g of sodium citrate, and 100 mL of distilled water, pH 4.7). Endogenous […] was removed using 3% hydrogen peroxide (Shandong Annjet High-Tech Disinfection Technology Co., Ltd., article No. 20290902), and the sections were incubated at room temperature for 10 minutes and then fully rinsed with a PBS buffer solution (containing 8 g of NaCl, 0.2 g of KCl, 1.44 g of Na2HPO4, and 1 M HCl, pH 7.4). The sections were permeabilized with 0.5% Triton-X-100 (AmyJet Scientific, article No. A-CSH436-100 mL), respectively permeabilized with mouse anti-IL-1β and rabbit IL-8 for 10 minutes, and not permeabilized with rabbit anti-IL-6. […]

[4] = competitive suspension tests of crystal forms (XRPD); format: physicochemical; conditions: isopropanol, isopropyl acetate, and acetonitrile; 5°C, 25°C, 50°C, 3 days
Protocol: A 2θ scanning angle of the sample was 3°-40°, a scanning step size was 0.02°, and a scanning time per step was 0.12 s/step. An optical tube voltage and a current were 40 kV and 40 mA, respectively. During sample preparation, an appropriate amount of the sample was placed on a sample tray and flattened with a tool such as a glass slide to ensure a smooth and even surface.
Resulting suspensions were suspended at 5°C, 25°C, and 50°C for 3 days, respectively. The resulting suspensions were centrifuged, and solid portions were detected by XRPD.

SMILES	m6A methylation levels of HaCaT cells higher than that of the control group (HaCaT cells [1]) [fold]	m6A fold change (HaCaT cells [2]) [fold]	cytokine IL-8 in the skin tissues of the hind limb toes of the mice ([3]; capecitabine oral 14 days, vs normal control group, p<0.05)	swelling of the hind limb toes of the mice [3]	epidermal layer and the stratum corneum in the skin tissues of the hind limb toes ([3]; vs normal control group)	skin of the hind limb toes of the mice (appearance) ([3]; vs normal control group)	crystal form after competitive suspension slurrying [4]	cytokine IL-6 in the skin tissues of the hind limb toes of the mice ([3]; docetaxel oral 14 days, vs normal control group, p<0.05)
CCCCCOC(=O)Nc1nc(=O)n([C@@H]2O[C@H](C)[C@@H](O)[C@H]2O)cc1F [Capecitabine, capecitabine]	6.01	6.7	significantly increased	swelling of the hind limb toes of the mice was caused	significantly thickened	obvious erythema, rhagades, and blisters	–	–
NC(=O)[C@H]1CCCc2c1[nH]c1ccc(Cl)cc21 [Crystal form B, (S)-6-chloro-2,3,4,9-tetrahydro-1H-carbazole-carboxamide]	–	–	–	–	–	–	converted into the crystal form F	–
CC(=O)O[C@@]12CO[C@@H]1C[C@H](O)[C@@]1(C)C(=O)[C@H](O)C3=C(C)[C@@H](OC(=O)[C@H](O)[C@@H](NC(=O)OC(C)(C)C)c4ccccc4)C[C@@](O)([C@@H](OC(=O)c4ccccc4)[C@H]21)C3(C)C [Docetaxel, docetaxel]	3.97	5.6	–	swelling of the hind limb toes of the mice was caused	significantly thickened	obvious erythema, rhagades, and blisters	–	significantly increased
